From patent US8841269B2, “Polynucleotides for use in treating and diagnosing cancers” (Creighton University, priority 2010, dated 2014)
Entries after “also recorded” stand apart in the source; their conditions may differ.

Assays:
[1] = test system: MCF7 cells; assay: MTT cell proliferation assay in MCF7; format: cell-based, human
Method: (§1) MTT cell proliferation assay. MCF7 cells were transfected with let-7 mimics or negative controls (60 nmol/L) in normal growth medium for 1 day, or in medium with 2.5% charcoal-stripped FBS for 2 days to exhaust endogenous estrogen, following the protocol of siPORT NeoFX Transfection Agent (Applied Biosystems). For the experiment in normal growth medium, 10^4 cells in the volume of 100 μL were seeded in a 96-well plate for 12 hours and assay lasted for another 4 days. For experiments in E2 free medium, 1.5 10^4 cells were seeded in a 96-well plate for 12 hours and then exposed to 10 nmol/L E2, or not, for up to 4 days. For both experiments, each treatment had 12 replicates on the plate. The cells were then incubated in 0.83 mg/mL 3-[4,5-dimethylthiazol-2-yl]-2,5-diphenyltetrazolium bromide (MTT) in growth medium at 37° C. for 4 h and lysed in 100 μL of DMSO at room temperature for 15 min. The absorbance in each well was measured at 490 nm by an ELx800 Absorbance Microplate Reader (Biotek). Cell proliferation was normalized to day 0.

[2] = test system: ER-α; assay: Immunoblot of ER-α after transfection in MCF7; format: cell-based, human; details: MCF7, mimics 60 nmol/L
Text: (§2) Immunoblot analysis. For Western blot in FFPE tissues, an established method was followed (Addis et al., 2009, Proteomics 9:3815-23). For MCF7 cell line, let-7 mimics and negative control miRNA (60 nmol/L), or let-7 inhibitors and anti-miR negative control (60 nmol/L) were transfected following the protocol of siPORT NeoFX Transfection Agent (Applied Biosystems), The Western blot procedure was described before (Zhang et al., 2010, J Proteome Res., 9(2):980-989). Antibody information is as follows: ER-α, RB-9016-P1, Thermoscientific; Cyclin D1, sc-8396, Santa Cruz; pS2, ab80782 was Abeam; β-Actin, sc-69879, Santa Cruz.

[3] = test system: pS2; assay: Immunoblot of pS2 after transfection in MCF7; format: cell-based, human; details: MCF7, mimics
Text: as §2

[4] = test system: MCF7 cells; assay: Annexin-V binding assay for apoptosis in MCF7; format: cell-based, human; details: MCF7, after either 3 days or 6 days
Method: Annexin-V binding assay for apoptosis. […] The staining followed the protocol of FITC Annexin V Apoptosis Detection Kit I (Cat #556547, BD Biosciences). Cell populations were analyzed with a BD FACSAria™ flow cytometer. Approximately 20,000 cells were counted for each sample.

[5] = test system: ER-α mRNA; assay: Real-time PCR of ER-α mRNA after transfection in MCF7; format: cell-based, human; details: MCF7, mimics, after 6 days
Method: For real-time PCR on the expression of ER-α, total RNA was extracted using Trizol reagent (Invitrogen). One microgram RNA was used for cDNA synthesis following the protocol of SuperScript III First-Strand Synthesis System (Invitrogen). After 10 times dilution, 4 μL cDNA was used in a 20 μL reaction volume, which included 4 μL of 1.5 μM primers, 2 μL of 2 μM probes, and 10 μL master mix (Applied Biosystems). β-actin was the internal control. The oligos for ER-α are: forward primer, 5′-GCGGCCACGGACCAT (SEQ ID NO:17); reverse primer, 5′-[…] (SEQ ID NO:18); probe, 5′-FAM-[…]-TAMRA (SEQ ID NO:19).
(§3) For FFPE tissues, there was the same repeat number as in microarray; for cell lines, there were three biological repeats. Each sample had three technical repeats on the PCR plate. Real-time PCR was performed on an Applied Biosystems 7900HT real-time PCR instrument. PCR was initiated by two holds of 52° C. 2 min and 94° C. 10 min each, followed by 40 cycles of 15 s at 95° C. and 1 min at 60° C.

[6] = test system: cyclin D1; assay: Immunoblot of cyclin D1 after transfection in MCF7; format: cell-based, human; details: MCF7, mimics
Text: as §2

[7] = test system: ER-α negative MDA-MB-231 cell line; assay: MTT cell proliferation assay in MDA-MB-231; format: cell-based, human; details: MDA-MB-231, DMEM with 10% FBS
Method: FIG. 10. The effects of let-7a, let-7b, and let-7i miRNAs on cell proliferation in ER-α negative MDA-MB-231 cell line. Cancer cell proliferation was monitored by MTT assays in the same way as in MCF7 cell line except MDA-MB-231 cells were grown in DMEM with 10% FBS.
as §1

[8] = test system: estrogen response element (ERE) construct; assay: ERE luciferase assay (2 ERE-tk-Luc), genomic estrogen pathway in MCF7; format: cell-based, human
Method: For checking on the genomic estrogen pathway, 10^5 MCF7 cells were first seeded into each well on a 24-well plate and cultured in IMEM with 2.5% charcoal-stripped FBS for 2 days. Then the cells were transfected as described above except that the estrogen response element (ERE) construct (2 ERE-tk-Luc; obtained from Katarine Pettersson, Karolinska Institute, Stockholm) replaced the pMIR-REPORT plasmid for 1 day. After stimulation with 10 nmol/L E2 for 12 hours, luciferase activity was measured as described above.

[9] = Real-time PCR quantification of mature let-7 after mimic transfection in MCF7; format: cell-based, human; details: MCF7, relative quantity against RNU48
Method: Quantitative real-time PCR. For miRNA quantification in FFPE tissues, total RNA was extracted as described above; for miRNA quantification in cell lines, total RNA was isolated using mirVana miRNA Isolation Kit (Ambion Inc.). cDNA was synthesized by using 100 ng total RNA in a reaction volume of 15 μL, by following the protocol of Taqman miRNA Reverse Transcription Kit (Applied Biosystems). After 15 times dilution, 9 μL cDNA was used for real-time PCR in a 20 μL reaction volume, including 10 μL of master mix and 1 μL Taqman probe (Applied Biosystems). This reaction system only detects mature miRNAs not pre-miRNAs. The level of each miRNA was expressed following the 2^−ΔΔCt or […] method using the small nuclear RNA, RNU48, as the internal reference.
as §3

[10] = test system: 3′ UTR of human ER-α gene; assay: Luciferase reporter assay, ER-α 3′ UTR let-7 binding site in pMIR-REPORT; format: cell-based; details: MCF7 cells
Text: Luciferase assay. A fragment of the 3′ UTR of human ER-α gene, which contains the putative let-7 target sites, was synthesized (IDT technology). With attached SpeI and HindIII restriction sites, the fragments are 48 by long. The sense strand was 5′-[…] (SEQ ID NO:39) while the antisense strand was 5′-[…] (SEQ ID NO:40). The cloning and transfection followed previous protocol (Hu et al., 2009, J Immunol 183:1617-24). Sixty nanomolar let-7 mimics, anti-let-7 inhibitors, pre-miR negative control #1 (AM17110, Ambion), or anti-miR negative control #1 (AM17010, Ambion) were transfected together with a 0.25 μg luciferase construct and a 0.25 μg β-galactosidase plasmid, which were used as a normalization reference. After 24 hour post-transfection, the luciferase activity was measured in a Veritas Microplate Luminometer (Turner Biosystems). Every treatment had 3 replicates. The luciferase activity was expressed as a fraction of negative control.

let-7a: let-7a miRNA (mimic), 3′-UUGAUAUGUUGGAUGAUGGAGU-5′ (SEQ ID NO:7) (chemistry not given here; listed 3' to 5')
cell growth (MTT) with E2 ([1]; MCF7, E2 free medium with addition of 10 nmol/L E2): least inhibition | cell growth (MTT) ([1]; MCF7, E2 free medium with or without addition of 10 nmol/L E2 (FIG. 9B-D)): slightly inhibited | cell proliferation (MTT) ([1]; MCF7, normal growth medium, 60 nmol/L): did not show a significant effect | expression of ER-α (protein) ([2]; after 2 days): significantly depressed the expression of ER-α | expression of ER-α (protein) ([2]; after 6 days): modest effect | expression of pS2 (protein) ([3]; after 2 days): significantly inhibited | protein expression of pS2 ([3]; after 6 days): affected neither | effect on apoptosis [4]: not significant | ER-α mRNA expression [5]: relieved | expression of cyclin D1 (protein) ([6]; after 2 days): significantly inhibited | protein expression of cyclin D1 ([6]; after 6 days): affected neither | cell growth (MTT) [7]: None of three miRNAs significantly inhibited cell growth | ERE luciferase activity ([8]; MCF7, p2 ERE-tk-Luc, 10 nmol/L E2 12 hours, p<0.01): about 60 % of negative control | luciferase activity of the ERE construct ([8]; MCF7 cell line): inhibit the luciferase activity of the ERE construct | rank of forced expression throughout the time course [9]: lowest expression | luciferase activity, ER-α binding site in 3′UTR of luciferase ([10]; 60 nmol/L mimics, vs negative control miRNA): decreased the luciferase activity; also recorded: significantly inhibited the luciferase activity | luciferase activity, mutated ER-α binding sequence ([10]; mutated sequence in 3′UTR of luciferase): abrogated the effects; also recorded: did not show inhibition
